Literature values in patent EP0147926B1, “Oral anti-cancer compositions” (priority 1983, dated 1985).

Experiments:
ADJ/PC6A plasmacytoma = conditions: administered orally
[1] = system: P388 lymphocytic leukaemia; conditions: administered orally

Compound: N.N.O=C([O-])C1(C(=O)[O-])CCC1.[Pt+2] [cis-[diammine-(1,1-cyclobutanedicarboxylato)platinum(II)l]
- activity (ADJ/PC6A plasmacytoma): insignificant activity
- activity [1]: insignificant activity
